Data taken from US20230061736A1, “GPR119 AGONISTS” (Kallyope, Inc., priority 2019, published 2023).
pEC50: −log10 of the molar value.

Assays:
human GPR119 (hGPR119) = molecular target: T1, human GPR119 (hGPR119) (Homo sapiens, UniProt Q8TDV5); assay: cAMP accumulation assay (cAMP Gs dynamic HTRF kit); assay type: cell-based; settings: CHO-K1 cells stably expressing hGPR119, 4-parameter fit; for Emax: 1 h, % activity normalized to Max/Min controls; for pEC50: cAMP accumulation
T1 construct: expressed in transfected cells
T1 sequence (Q8TDV5 1-335): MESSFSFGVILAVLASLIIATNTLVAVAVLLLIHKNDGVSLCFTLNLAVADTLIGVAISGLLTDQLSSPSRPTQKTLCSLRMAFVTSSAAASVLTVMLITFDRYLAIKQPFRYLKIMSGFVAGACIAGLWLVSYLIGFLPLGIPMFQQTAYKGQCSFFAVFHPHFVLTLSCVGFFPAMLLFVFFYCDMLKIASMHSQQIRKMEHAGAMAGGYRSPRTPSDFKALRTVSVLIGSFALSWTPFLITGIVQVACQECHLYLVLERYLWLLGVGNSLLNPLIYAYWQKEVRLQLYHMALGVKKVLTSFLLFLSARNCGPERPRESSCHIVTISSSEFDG
Outline: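 Read-out is HTRF 665/620 nm ratio after 1 h detection at ambient temperature, converted to % activity against positive and negative controls, EC50 and Max activity by 4-parameter fit. Compounds were titrated onto ~10,000 thawed hGPR119-CHO-K1 cells/well for 60 min at 37° C/5% CO2.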

[1] = In vivo plasma levels in mice after oral gavage; set-up: species or system C57BL/6J mice; settings: mouse, 30 mpk oral gavage, 7 h post-dose; for concentration at 7 h: male, C57BL/6J, plasma, 30 mg/kg, read-out: Exposure Total (plasma); for Exposure unbound (plasma): total exposure x free fraction from plasma protein binding
Description: Male C57BL/6J mice 10-12 weeks old were dosed with test article or vehicle [0.25% (w/v) methylcellulose, 5% (v/v) Polysorbate 80, and 0.02% (w/v) sodium lauryl sulfate in Hanks' Balanced Salt solution (all final concentrations)] by oral gavage at a volume of 10 mL/kg. Animals were euthanized with carbon dioxide 7-8 h post dose. Blood was collected for measurement of plasma concentrations of test article. Unbound exposure was calculated by multiplying the measured total exposure by the free fraction as assessed from plasma protein binding.
Plasma protein binding to isotonic phosphate buffer (PBS) containing 10% C57 BL/6 mouse plasma was determined using equilibrium dialysis of plasma spiked with test article (2 μM) against a dialysis buffer (100 mM sodium phosphate and 150 mM NaCl). At the end of the dialysis (4 hr), aliquots of the plasma and buffer were processed by protein precipitation for LC-MS/MS analysis to quantitate the test article.

[2] = In vivo plasma levels in mice after oral gavage; set-up: species or system C57BL/6J mice; settings: male, C57BL/6J, plasma, 30 mg/kg; mouse, 30 mpk oral gavage, 2 h post-dose; read-out: Exposure Total (plasma)
[3] = Oral bioavailability in mice; settings: mouse, in vivo; C57BL/6 mice; IV 1 mg/kg, PO 30 mg/kg
Description: Compounds were dosed IV at 1 mg/kg as a formulation of 0.5 mg/mL in 5% DMSO+30% PEG400+65% water and PO at 30 mg/kg as a formulation of 6 mg/mL in 0.25% methylcellulose+5% Tween 80+0.02% SDS in water (Compound 42) or 0.5% methylcellulose+0.5% Tween 80 in water (Compound 83).

| Structure (SMILES) | Emax (human GPR119 (hGPR119)) | pEC50 (human GPR119 (hGPR119)) | concentration at 7 h [1] | Exposure unbound (plasma) [1] | concentration at 2 h [2] | bioavailability [3] |
| --- | --- | --- | --- | --- | --- | --- |
| O=C(NC[C@H](O)[C@@H](O)[C@H](O)[C@H](O)CO)C1CN(C(=O)Cc2ccc(OCCCC3CCN(c4ncc(Cl)cn4)CC3)cc2F)C1 (racemic) [Example 37, 1-[2-[4-[3-[1-(5-chloropyrimidin-2-yl)-4-piperidyl]propoxy]-2-fluoro-phenyl]acetyl]-N-[rac-(2S,3R,4R,5R)-2,3,4,5,6-pentahydroxyhexyl]azetidine-3-carboxamide] | 100 to 130% | 6.00 to 7.00 | 551 nM | 1.1 nM | – | – |
| O=C(CC1CN(C(=O)Cc2ccc(OCCCC3CCN(c4ncc(Cl)cn4)CC3)cc2F)C1)NC[C@H](O)[C@@H](O)[C@H](O)[C@H](O)CO (racemic) [Example 38, 2-[1-[2-[4-[3-[1-(5-chloropyrimidin-2-yl)-4-piperidyl]propoxy]-2-fluoro-phenyl]acetyl]azetidin-3-yl]-N-[rac-(2S,3R,4R,5R)-2,3,4,5,6-pentahydroxyhexyl]acetamide] | ≥ 130% | 6.00 to 7.00 | 76 nM | 0.2 nM | – | – |
| COc1c(Nc2ccc(S(C)(=O)=O)nc2C)ncnc1OC1CCN(C(=O)OC(C)C)CC1 [APD597, isopropyl 4-((5-methoxy-6-((2-methyl-6-(methylsulfonyl)pyridin-3-yl)amino)pyrimidin-4-yl)oxy)piperidine-1-carboxylate, reference compound] | – | – | – | – | 16200 nM | – |
| O=C(NC(CO)(CO)CO)C1CN(C(=O)Cc2ccc(OCCCC3CCN(c4ncc(Cl)cn4)CC3)cc2F)C1 [Example 29, 1-[2-[4-[3-[1-(5-chloropyrimidin-2-yl)-4-piperidyl]propoxy]-2-fluoro-phenyl]acetyl]-N-[2-hydroxy-1,1-bis(hydroxymethyl)ethyl]azetidine-3-carboxamide] | ≥ 130% | ≥ 7.00 | 354 nM | 0.7 nM | – | – |
| O=C(Cc1ccc(OCCCC2CCN(c3ncc(Cl)cn3)CC2)cc1F)N1CC(CNC(CO)(CO)CO)C1 [Example 44, 2-[4-[3-[1-(5-chloropyrimidin-2-yl)-4-piperidyl]propoxy]-2-fluoro-phenyl]-1-[3-[[[2-hydroxy-1,1-bis(hydroxymethyl)ethyl]amino]methyl]azetidin-1-yl]ethanone] | ≥ 130% | ≥ 7.00 | 668 nM | 0.7 nM | – | – |
| COCc1cnc(N2CCC(CCCOc3ccc(CC(=O)N4CC(CNC[C@H](O)[C@@H](O)[C@H](O)[C@H](O)CO)C4)c(F)c3)CC2)nc1 [Example 83, 2-[2-fluoro-4-[3-[1-[5-(methoxymethyl)pyrimidin-2-yl]-4-piperidyl]propoxy]phenyl]-1-[3-[[[(2S,3R,4R,5R)-2,3,4,5,6-pentahydroxyhexyl]amino]methyl]azetidin-1-yl]ethanone] | 100 to 130% | 6.00 to 7.00 | – | – | – | 1.4% |
| O=C(Cc1ccc(OCC[C@@H]2C[C@@H]2C2CCN(c3ncc(Cl)cn3)CC2)cc1F)N1CC(CNC[C@H](O)[C@@H](O)[C@H](O)[C@H](O)CO)C1 [Example 86, 2-[4-[2-[(1S,2R)-2-[1-(5-chloropyrimidin-2-yl)-4-piperidyl]cyclopropyl]ethoxy]-2-fluoro-phenyl]-1-[3-[[[(2S,3R,4R,5R)-2,3,4,5,6-pentahydroxyhexyl]amino]methyl]azetidin-1-yl]ethanone] | 100 to 130% | 6.00 to 7.00 | 67 nM | 0.1 nM | – | – |
| O=C(Cc1ccc(OCCCC2CCN(c3ncc(Cl)cn3)CC2)cc1F)N1CCC(O)(C(=O)NCC(CO)(CO)CO)C1 (stereo not shown) [Example 182, 1-[2-[4-[3-[1-(5-chloropyrimidin-2-yl)-4-piperidyl]propoxy]-2-fluoro-phenyl]acetyl]-3-hydroxy-N-[3-hydroxy-2,2-bis (hydroxymethyl)propyl]pyrrolidine-3-carboxamide] | 100 to 130% | ≥ 7.00 | – | – | – | – |
| O=C(Cc1ccc(OCCCC2CCN(c3ncc(Cl)cn3)CC2)cc1F)N1CCC(O)(CNCC(CO)(CO)CO)CC1 [Example 183, 2-[4-[3-[1-(5-chloropyrimidin-2-yl)-4-piperidyl]propoxy]-2-fluoro-phenyl]-1-[4-hydroxy-4-[[[3-hydroxy-2,2-bis (hydroxymethyl)propyl]amino]methyl]-1-piperidyl]ethanone] | 100 to 130% | ≥ 7.00 | – | – | – | – |
| O=C(CC1(O)CN(C(=O)Cc2ccc(OCCCC3CCN(c4ncc(Cl)cn4)CC3)cc2F)C1)NCC(CO)(CO)CO [Example 184, 2-[1-[2-[4-[3-[1-(5-chloropyrimidin-2-yl)-4-piperidyl]propoxy]-2-fluoro-phenyl]acetyl]-3-hydroxy-azetidin-3-yl]-N-[3-hydroxy-2,2-bis(hydroxymethyl)propyl]acetamide] | 100 to 130% | ≥ 7.00 | – | – | – | – |
| O=C(Cc1ccc(OCCCC2CCN(c3ncc(Cl)cn3)CC2)cc1F)N1CC(O)(CNC[C@H](O)[C@H](O)[C@H](O)CO)C1 [Example 185, 2-[4-[3-[1-(5-chloropyrimidin-2-yl)-4-piperidyl]propoxy]-2-fluoro-phenyl]-1-[3-hydroxy-3-[[[(2S,3S,4R)-2,3,4,5-tetrahydroxypentyl]amino]methyl]azetidin-1-yl]ethanone] | 100 to 130% | ≥ 7.00 | – | – | – | – |
| O=C(Cc1ccc(OCCCC2CCN(c3ncc(Cl)cn3)CC2)cc1F)N1CCC(O)(CNC[C@H](O)[C@H](O)[C@H](O)CO)C1 (stereo partly drawn) [Example 186, 2-[4-[3-[1-(5-chloropyrimidin-2-yl)-4-piperidyl]propoxy]-2-fluoro-phenyl]-1-[3-hydroxy-3-[[[(2S,3S,4R)-2,3,4,5-tetrahydroxypentyl]amino]methyl]pyrrolidin-1-yl]ethanone] | ≥ 130% | ≥ 7.00 | – | – | – | – |
| O=C(Cc1ccc(OCCCC2CCN(c3ncc(Cl)cn3)CC2)cc1F)N1CCC(O)(CNC[C@H](O)[C@H](O)[C@H](O)CO)CC1 [Example 187, 2-[4-[3-[1-(5-chloropyrimidin-2-yl)-4-piperidyl]propoxy]-2-fluoro-phenyl]-1-[4-hydroxy-4-[[[(2S,3S,4R)-2,3,4,5-tetrahydroxypentyl]amino]methyl]-1-piperidyl]ethanone] | 100 to 130% | ≥ 7.00 | – | – | – | – |
| O=C(Cc1c(F)cc(OCCCC2CCN(c3ncc(Cl)cn3)CC2)cc1F)N1CCC(O)(CNCC(CO)(CO)CO)C1 (stereo not shown) [Example 188, 2-[4-[3-[1-(5-chloropyrimidin-2-yl)-4-piperidyl]propoxy]-2,6-difluoro-phenyl]-1-[3-hydroxy-3-[[[3-hydroxy-2,2-bis(hydroxymethyl)propyl]amino]methyl]pyrrolidin-1-yl]ethanone] | 100 to 130% | ≥ 7.00 | – | – | – | – |
| CCOc1cnc(N2CCC(CCCOc3cc(F)c(CC(=O)N4CCC(O)(CNCC(CO)(CO)CO)C4)c(F)c3)CC2)nc1 (stereo not shown) [Example 189, 2-[4-[3-[1-(5-ethoxypyrimidin-2-yl)-4-piperidyl]propoxy]-2,6-difluoro-phenyl]-1-[3-hydroxy-3-[[[3-hydroxy-2,2-bis(hydroxymethyl)propyl]amino]methyl]pyrrolidin-1-yl]ethanone] | 100 to 130% | ≥ 7.00 | – | – | – | – |
| COCc1cnc(N2CCC(CCCOc3cc(F)c(CC(=O)N4CCC(O)(CNCC(CO)(CO)CO)C4)c(F)c3)CC2)nc1 (stereo not shown) [Example 190, 2-[2,6-difluoro-4-[3-[1-[5-(methoxymethyl)pyrimidin-2-yl]-4-piperidyl]propoxy]phenyl]-1-[3-hydroxy-3-[[[3-hydroxy-2,2-bis(hydroxymethyl)propyl]amino]methyl]pyrrolidin-1-yl]ethanone] | 100 to 130% | ≥ 7.00 | – | – | – | – |
| CC(C)c1noc(N2CCC(COc3ccc(-c4ccc(S(C)(=O)=O)cc4)nc3)CC2)n1 [GSK1292263, 3-isopropyl-5-(4-(((6-(4-(methylsulfonyl)phenyl)pyridin-3-yl)oxy)methyl)piperidin-1-yl)-l,2,4-oxadiazole, reference compound] | – | – | – | – | 7840 nM | – |
